According to patent US8318947B2, “Comestible compositions comprising high potency savory flavorants, and processes for producing them” (Senomyx, Inc., priority 2006, dated 2012):

Columns and labels:
[1] = test system: human panelists, savory taste; assay: Savory taste test with trained human panel (difference from reference); format: in vivo; settings: for Taste Data: cpd concentration as strong as 12 mM MSG: compound alone, without MSG; for Taste Data: cpd concentration at which 12 mM MSG + cpd is as strong as 12 mM MSG + 100 μM IMP: with 12 mM MSG, reference 12 mM MSG + 100 μM IMP
Protocol: General Panelist Selection: Basic screening of sensory taste testers: Potential panelists were tested for their abilities to rank and rate intensities of solutions representing the five basic tastes. Panelists ranked and rated intensity of five different concentrations of each of the five following compounds: sucrose (sweet), sodium chloride (salty), citric acid (sour), caffeine (bitter), and monosodium glutamate (savory). In order to be selected for participation in testing, panelists needed to correctly rank and rate samples for intensity, with a reasonable number of errors.
Preliminary Taste Tests: The panelists selected in the above procedure were deemed qualified for performing Preliminary Taste Testing procedures. The preliminary taste tests are used to evaluate new compounds for intensity of basic tastes and off-tastes. A small group of panelists (n=5) taste approximately 5 concentrations of the compound (range typically between 1-100 μM, in half-log cycles, e.g., 1, 3, 10, 30, and 100 μM) in water and in a solution of 12 mM MSG to evaluate enhancement. Panelists rate the five basic tastes (sweet, salty, sour, bitter, and savory) as well as off-tastes (such as chemical, metallic, sulfur) on a labeled magnitude scale. Samples are served in 10 mL portions at room temperature. The purpose of the test is to determine the highest concentration at which there is no objectionable off-taste, and determine if obvious savory taste or enhancement of savory taste exists at any of the concentrations tested.
Trained Panelist Selection: A trained expert panel was used to further evaluate compounds that had been tested with the preliminary taste test.
Panelists for the trained panel were selected from the larger group of qualifying taste panelists. Panelists were further trained on savory taste by ranking and rating experiments using MSG and IMP combinations. Panelists completed a series of ranking, rating, and difference from reference tests with savory solutions. In ranking and rating experiments, panelists evaluated easy MSG concentrations (0, 6, 18, 36 mM) and more difficult MSG concentrations (3, 6, 12, 18 mM MSG) in water.
Compound testing with Trained Panel: Compounds tested by the trained panel were evaluated in difference from reference experiments. […] Test samples were solutions with varying amounts of MSG, IMP, and the compound. Typically, each session compares the reference sample to numerous test samples. […] Compounds were tested against the reference in samples with and without 12 mM MSG. All samples were presented in 10 ml volumes at room temperature. Two sessions were completed for each compound tested to evaluate panel reproducibility.

[2] = target: T1, hT1R1/hT1R3 umami receptor expressed in an HEK293 cell line (Homo sapiens, UniProt Q7RTX0+Q7RTX1); assay: Umami taste enhancement assay (EC50 ratio vs. MSG); format: cell-based
T1 construct: expressed in transfected cells; host or cells: HEK293 cell line derivative, clone 1-17, expression induced with mifepristone
T1 sequence (Q7RTX1 21-841): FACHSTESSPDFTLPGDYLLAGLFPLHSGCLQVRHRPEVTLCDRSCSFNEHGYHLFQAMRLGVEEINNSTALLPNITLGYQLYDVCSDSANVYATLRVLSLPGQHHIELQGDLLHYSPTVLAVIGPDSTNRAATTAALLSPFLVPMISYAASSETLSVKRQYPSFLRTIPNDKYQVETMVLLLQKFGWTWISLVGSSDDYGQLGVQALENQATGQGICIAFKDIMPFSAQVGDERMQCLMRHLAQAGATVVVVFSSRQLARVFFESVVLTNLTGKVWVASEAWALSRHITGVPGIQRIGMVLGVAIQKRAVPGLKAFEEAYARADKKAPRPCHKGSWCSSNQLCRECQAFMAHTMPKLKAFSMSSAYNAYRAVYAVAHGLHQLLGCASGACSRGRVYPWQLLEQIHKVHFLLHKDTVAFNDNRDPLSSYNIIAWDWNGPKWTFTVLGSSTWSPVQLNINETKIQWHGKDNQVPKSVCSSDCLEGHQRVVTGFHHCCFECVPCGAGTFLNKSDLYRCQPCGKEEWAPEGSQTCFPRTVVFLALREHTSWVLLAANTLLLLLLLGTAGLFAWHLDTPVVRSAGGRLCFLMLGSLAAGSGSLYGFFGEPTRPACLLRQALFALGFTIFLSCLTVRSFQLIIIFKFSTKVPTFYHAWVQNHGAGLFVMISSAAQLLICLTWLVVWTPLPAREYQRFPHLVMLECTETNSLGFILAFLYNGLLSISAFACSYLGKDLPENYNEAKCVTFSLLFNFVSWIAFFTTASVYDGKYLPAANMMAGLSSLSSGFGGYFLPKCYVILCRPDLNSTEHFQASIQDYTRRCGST
T1 sequence (Q7RTX0 21-852): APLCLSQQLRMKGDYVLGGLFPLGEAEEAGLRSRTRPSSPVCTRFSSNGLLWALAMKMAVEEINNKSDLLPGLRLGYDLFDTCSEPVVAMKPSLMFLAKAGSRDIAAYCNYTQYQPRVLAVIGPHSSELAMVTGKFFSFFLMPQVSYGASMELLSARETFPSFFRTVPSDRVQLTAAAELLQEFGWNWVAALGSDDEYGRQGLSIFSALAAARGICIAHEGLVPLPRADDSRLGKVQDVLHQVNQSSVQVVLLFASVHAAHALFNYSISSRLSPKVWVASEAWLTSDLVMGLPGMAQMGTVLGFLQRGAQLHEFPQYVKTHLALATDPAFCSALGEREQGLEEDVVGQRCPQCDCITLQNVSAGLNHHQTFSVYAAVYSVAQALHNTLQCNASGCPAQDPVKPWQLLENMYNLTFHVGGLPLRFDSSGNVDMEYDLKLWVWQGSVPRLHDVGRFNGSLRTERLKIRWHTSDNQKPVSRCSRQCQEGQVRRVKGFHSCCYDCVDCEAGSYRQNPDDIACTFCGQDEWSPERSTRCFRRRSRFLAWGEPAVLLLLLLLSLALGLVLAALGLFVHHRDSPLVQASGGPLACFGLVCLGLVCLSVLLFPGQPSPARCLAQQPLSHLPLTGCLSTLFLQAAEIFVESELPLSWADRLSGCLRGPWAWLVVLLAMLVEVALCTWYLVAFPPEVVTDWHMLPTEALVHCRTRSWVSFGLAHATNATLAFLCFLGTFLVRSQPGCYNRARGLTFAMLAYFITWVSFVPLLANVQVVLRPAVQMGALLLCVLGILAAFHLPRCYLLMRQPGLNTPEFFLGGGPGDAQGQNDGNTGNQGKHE
Description: In umami taste enhancement activity assay experiments, which produce an “EC50 ratio” measurement of how effectively the amide compounds of the invention enhance the savory flavorant (typically MSG) already in a test solution. A series of measurements of the dose response is run in solutions comprising MSG alone, then a second dose response is run with MSG in combination with predetermined amounts of a candidate compound of Formula (I) at the same time.
In this assay, increasing concentrations of monosodium glutamate (ranging from 12 μM to 81 mM) were presented, in duplicates, in the presence or absence of a fixed concentration of the test compound. Typical compound concentrations tested were 30 μM, 10 μM, 3 μM, 1 μM, 0.3 μM, 0.1 μM and 0.03 μM. The relative efficacy of compounds of […] at enhancing the receptor was determined by calculating the magnitude of a shift in the EC50 for monosodium glutamate. Enhancement was defined as a ratio (EC50R) corresponding to the EC50 of monosodium glutamate, determined in the absence of the test compound, divided by the EC50 of monosodium glutamate, determined in the presence of the test compound.
Stated alternatively, “EC50 ratio” as compared to MSG is calculated based on the following definitions:
EC50 Ratio vs. MSG=EC50 (MSG)/EC50 (MSG+[Compound]) wherein “[compound]” refers to the concentration of the compound of Formula (I) used to elicit (or enhance or potentiate) the MSG dose response.
It should be noted that the EC50 ratio measured can depend somewhat on the concentration of the compound itself. Preferred savory enhancers would have a high EC50 Ratio vs. MSG at a low concentration of the compound used.

[3] = test system: trained tasters, savory, salt, spice flavors; assay: Italian sausage rank-rating intensity taste test; format: in vivo, human; settings: scale 0-10, ten tasters
Description: Three different dry Italian sausage seasoning mixes were formulated by dry blending the ingredients shown in the Tables below, then rehydrated during the formulation of corresponding sausages. One control sample of seasoning mix (Tables 36-1a, b) contained no MSG, and no compounds of the invention. A second sample of seasoning mix and sausage contained added MSG (Tables 36-2a, b). A third sample of Seasoning mix and corresponding sausage also contained added savory flavor concentrate compositions (prepared as per Example 34) containing (0.1% wt/wt) of compounds 1 and 24 ([…]).
Ten trained tasters were trained to identify the relative intensities of the following taste attributes: salty, savory/meaty, umami, brothiness, bitter, linger and off flavors. A rank-rating intensity test was used to evaluate the Italian Sausagesamples. A rank rating is a difference test to determine whether a sensory difference is perceived between various samples. Samples that were evaluated were the Italian Sausage no MSG, Italian sausage with MSG, Italian sausage with compounds 1 and 24 but no MSG. The panelists evaluated 3 randomized, blind coded samples of one ounce of Italian sausage served at 140° F., and ranked the intensity of savory, salt, spice flavors on a scale of 0-10: 0 being the least intense and 10 being the most intenese, and the scores were averaged for individual category.

| Structure (SMILES) | melting point [°C] | Taste Data: cpd concentration at which 12 mM MSG + cpd is as strong as 12 mM MSG + 100 μM IMP [1] | other results |
| --- | --- | --- | --- |
| COc1ccc2c(c1)CCC2NC(=O)c1ccc(OC)c(C)c1 (racemic) [Example 22, (R/S)-4-Methoxy-N-(5-methoxy-2,3-dihydro-1H-inden-1-yl)-3-methylbenzamide] | – | 12 mM MSG + 1 μM cpd as | Taste Data: cpd concentration as strong as 12 mM MSG [1]: 1 μM cpd as strong as |
| CC1CCCC(NC(=O)c2ccc3c(c2)OCO3)C1C (stereo not drawn) [Example 4] | – | – | EC50 ratio (enhancement of the effectiveness of monosodium glutamate) ([2]; compound present at 1 μM): 8.4 |
| COC(=O)[C@@H](CC(C)C)NC(=O)c1ccc2c(c1)OCO2 [Example 5, (R)-methyl 2-(benzo[d][1,3]dioxole-6-carboxamido)-4-methylpentanoate] | – | 12 mM MSG + 10 μM cpd as | EC50 ratio (enhancement of the effectiveness of monosodium glutamate) ([2]; compound present at 0.1 μM): 4.9 |
| CCCC(CCC)NC(=O)c1ccc2c(c1)OC(C)O2 (stereo not drawn) [Example 9, N-(heptan-4-yl)-2-methylbenzo[d][1,3]dioxole-5-carboxamide] | – | – | EC50 ratio (enhancement of the effectiveness of monosodium glutamate) ([2]; compound present at 0.03 μM): 3.68 |
| COC(=O)[C@@H](CC(C)C)NC(=O)c1ccc(OC)c(Cl)c1 [Example 16, (R)-methyl 2-(3-chloro-4-methoxybenzamido)-4-methylpentanoate] | – | – | EC50 ratio (enhancement of the effectiveness of monosodium glutamate) ([2]; compound present at 0.01 μM): 13.18 |
| COC[C@@H](CC(C)C)NC(=O)c1ccc(C)c(C)c1 [Example 18, (R)—N-(1-methoxy-4-methylpentan-2-yl)-3,4-dimethylbenzamide] | – | 12 mM MSG + 3 μM cpd as | – |
| COC(=O)[C@@H](CC(C)C)NC(=O)c1cc(C)c(C)o1 [Example 19, (R)-methyl 2-(2,3-dimethylfuran-5-carboxamido)-4-methylpentanoate] | – | 12 mM MSG + 10 μM cpd as | – |
| COC(=O)[C@@H](CC(C)C)NC(=O)c1cc(OC)nc(OC)c1 [Example 20, (R)-methyl 2-(2,6-dimethoxyisonicotinamido)-4-methylpentanoate] | – | 12 mM MSG + 3 μM cpd as | – |
| COc1ccccc1CNC(=O)C(=O)NCCc1ccccn1 [Example 23, N-(2-Methoxy-benzyl)-N′-(2-pyridin-2-yl-ethyl)-oxalamide] | 118 to 119 | – | EC50 ratio (enhancement of the effectiveness of monosodium glutamate) ([2]; compound present at 0.3 μM): 18.85 |
| Cc1ccc(CNC(=O)C(=O)NCCc2ccccn2)cc1 [Example 25, N-(4-methyl-benzyl)-N′-(2-pyridin-2-yl-ethyl)-oxalamide] | 152 to 154 | – | – |
| N[C@@H](CCC(=O)O)C(=O)[O-].[Na+] [MSG, monosodium glutamate] | – | – | Average score Salt [3]: 5.24; Average score Savory [3]: 6.13; Average score Spice [3]: 5.42 |

Second part, led by results:

| melting point [°C] | Structure (SMILES) | Taste Data: cpd concentration at which 12 mM MSG + cpd is as strong as 12 mM MSG + 100 μM IMP [1] | other results |
| --- | --- | --- | --- |
| 128 to 131 | COc1cc(C)ccc1CNC(=O)C(=O)NCCc1ccccn1 [Example 26, N-(2-methoxy-4-methylbenzyl)-N′-(2-(pyridin-2-yl)ethyl)oxalamide] | 12 mM MSG + 1 μM cpd as | Taste Data: cpd concentration as strong as 12 mM MSG [1]: 1 μM cpd as strong as |
| 148 to 149 | Cc1ccc(CNC(=O)C(=O)NCCc2ccccn2)c(C)c1 [Example 27, N-(2,4-dimethylbenzyl)-N′-(2-(pyridin-2-yl)ethyl)oxalamide] | – | – |
| 117 to 118 | CCOc1ccc(CNC(=O)C(=O)NCCc2ccccn2)c(OC)c1 [Example 28, N-(4-ethoxy-2-methoxybenzyl)-N′-(2-(pyridin-2-yl)ethyl)oxalamide] | – | – |
